Species on record: Rattus norvegicus
Assay: Open TG-GATES - Regimen: Single
Assay type: toxicity, organism-based, Sprague-Dawley
Design: regimen Single, gender Male, age 6 weeks
Details: in vivo, po, route gavage; for gamma-GTP / ALP / ALT / AST / BUN / CRE / Ca / Cl / DBIL / GLC / IP / K / LDH / PL / RALB / TBIL / TC / TP / Na: tissue Plasma; for APTT / Bas / Eos / Fbg / Hb / Ht / Lym / MCH / MCHC / MCV / Mono / PT / Plat / RBC / Ret / WBC: tissue Blood; for KIDNEY_L / KIDNEY_R / KIDNEY_TOTAL: tissue Kidney; for LIVER: tissue Liver
[1] = 10 mg/kg, 24 h, dose level High

C#C[C@]1(O)CC[C@H]2[C@@H]3CCc4cc(O)ccc4[C@H]3CC[C@@]21C [ETHINYL ESTRADIOL]
gamma-GTP (3 mg/kg, 24 h, dose level Middle): 1 IU/L | TERMINAL_BW (10 mg/kg, 3 h, dose level High): 198.2 g | APTT (10 mg/kg, 3 h, dose level High): 15.3 s | Bas (10 mg/kg, 3 h, dose level High): 0% | Eos (10 mg/kg, 3 h, dose level High): 0.8% | Fbg (10 mg/kg, 3 h, dose level High): 270.4 mg/dL | Hb (10 mg/kg, 3 h, dose level High): 13 g/dL | Ht (10 mg/kg, 3 h, dose level High): 39.6% | Lym (10 mg/kg, 3 h, dose level High): 78.6% | MCH (10 mg/kg, 3 h, dose level High): 21.4 pg | MCHC (10 mg/kg, 3 h, dose level High): 32.9% | MCV (10 mg/kg, 3 h, dose level High): 65.2 fL | Mono (10 mg/kg, 3 h, dose level High): 3% | PT (10 mg/kg, 3 h, dose level High): 12.2 s | Plat (10 mg/kg, 3 h, dose level High): 115.1 x10_4/uL | RBC (10 mg/kg, 3 h, dose level High): 608.4 x10_4/ul | Ret (10 mg/kg, 3 h, dose level High): 9.5% | WBC (10 mg/kg, 3 h, dose level High): 93.6 x10_2/uL | KIDNEY_L (10 mg/kg, 3 h, dose level High): 0.9 g | KIDNEY_R (10 mg/kg, 3 h, dose level High): 0.9 g | KIDNEY_TOTAL (10 mg/kg, 3 h, dose level High): 1.8 g | LIVER (10 mg/kg, 3 h, dose level High): 8.6 g | ALP (10 mg/kg, 3 h, dose level High): 1437.2 IU/L | ALT (10 mg/kg, 3 h, dose level High): 44 IU/L | AST (10 mg/kg, 3 h, dose level High): 74 IU/L | BUN (10 mg/kg, 3 h, dose level High): 9.8 mg/dL | CRE (10 mg/kg, 3 h, dose level High): 0.2 mg/dL | Ca (10 mg/kg, 3 h, dose level High): 11.2 mg/dL | Cl (10 mg/kg, 3 h, dose level High): 105.8 meq/L | DBIL (10 mg/kg, 3 h, dose level High): 0.016 mg/dL | GLC (10 mg/kg, 3 h, dose level High): 182.8 mg/dL | IP (10 mg/kg, 3 h, dose level High): 9.7 mg/dL | K (10 mg/kg, 3 h, dose level High): 4 meq/L | LDH (10 mg/kg, 3 h, dose level High): 55 IU/L | PL (10 mg/kg, 3 h, dose level High): 139.8 mg/dL | RALB (10 mg/kg, 3 h, dose level High): 2.5 g/dL | TBIL (10 mg/kg, 3 h, dose level High): 0.044 mg/dL | TC (10 mg/kg, 3 h, dose level High): 73.4 mg/dL | TP (10 mg/kg, 3 h, dose level High): 5.3 g/dL | gamma-GTP (10 mg/kg, 3 h, dose level High): 1 IU/L | TERMINAL_BW (10 mg/kg, 6 h, dose level High): 197 g | APTT (10 mg/kg, 6 h, dose level High): 16.9 s | Bas (10 mg/kg, 6 h, dose level High): 0% | Eos (10 mg/kg, 6 h, dose level High): 1% | Fbg (10 mg/kg, 6 h, dose level High): 255.2 mg/dL | Hb (10 mg/kg, 6 h, dose level High): 12.8 g/dL | Lym (10 mg/kg, 6 h, dose level High): 72% | MCHC (10 mg/kg, 6 h, dose level High): 33.7% | MCV (10 mg/kg, 6 h, dose level High): 63 fL | PT (10 mg/kg, 6 h, dose level High): 12.5 s | Plat (10 mg/kg, 6 h, dose level High): 110.6 x10_4/uL | RBC (10 mg/kg, 6 h, dose level High): 605.4 x10_4/ul | Ret (10 mg/kg, 6 h, dose level High): 9.4% | WBC (10 mg/kg, 6 h, dose level High): 71.5 x10_2/uL | KIDNEY_L (10 mg/kg, 6 h, dose level High): 0.9 g | KIDNEY_R (10 mg/kg, 6 h, dose level High): 0.9 g | KIDNEY_TOTAL (10 mg/kg, 6 h, dose level High): 1.8 g | LIVER (10 mg/kg, 6 h, dose level High): 8 g | ALP (10 mg/kg, 6 h, dose level High): 1644.6 IU/L | ALT (10 mg/kg, 6 h, dose level High): 39.6 IU/L | AST (10 mg/kg, 6 h, dose level High): 78.6 IU/L | BUN (10 mg/kg, 6 h, dose level High): 7.6 mg/dL | CRE (10 mg/kg, 6 h, dose level High): 0.2 mg/dL | Ca (10 mg/kg, 6 h, dose level High): 10.7 mg/dL | Cl (10 mg/kg, 6 h, dose level High): 108.8 meq/L | DBIL (10 mg/kg, 6 h, dose level High): 0.018 mg/dL | IP (10 mg/kg, 6 h, dose level High): 10.5 mg/dL | LDH (10 mg/kg, 6 h, dose level High): 42.8 IU/L | Na (10 mg/kg, 6 h, dose level High): 145 meq/L | PL (10 mg/kg, 6 h, dose level High): 115.6 mg/dL | RALB (10 mg/kg, 6 h, dose level High): 2.6 g/dL | TBIL (10 mg/kg, 6 h, dose level High): 0.042 mg/dL | TC (10 mg/kg, 6 h, dose level High): 58.8 mg/dL | TP (10 mg/kg, 6 h, dose level High): 5.4 g/dL | gamma-GTP (10 mg/kg, 6 h, dose level High): 1 IU/L | TERMINAL_BW (10 mg/kg, 9 h, dose level High): 194.6 g | APTT (10 mg/kg, 9 h, dose level High): 15.5 s | Bas (10 mg/kg, 9 h, dose level High): 0.2% | Eos (10 mg/kg, 9 h, dose level High): 1% | Fbg (10 mg/kg, 9 h, dose level High): 262.8 mg/dL | Hb (10 mg/kg, 9 h, dose level High): 13.1 g/dL | Ht (10 mg/kg, 9 h, dose level High): 39% | Lym (10 mg/kg, 9 h, dose level High): 72% | MCH (10 mg/kg, 9 h, dose level High): 21.6 pg | MCHC (10 mg/kg, 9 h, dose level High): 33.6% | MCV (10 mg/kg, 9 h, dose level High): 64.5 fL | PT (10 mg/kg, 9 h, dose level High): 12.8 s | Plat (10 mg/kg, 9 h, dose level High): 104.1 x10_4/uL | RBC (10 mg/kg, 9 h, dose level High): 606 x10_4/ul | Ret (10 mg/kg, 9 h, dose level High): 8.6% | WBC (10 mg/kg, 9 h, dose level High): 82.4 x10_2/uL | KIDNEY_L (10 mg/kg, 9 h, dose level High): 0.9 g | KIDNEY_R (10 mg/kg, 9 h, dose level High): 0.8 g | KIDNEY_TOTAL (10 mg/kg, 9 h, dose level High): 1.7 g | LIVER (10 mg/kg, 9 h, dose level High): 7.2 g | ALP (10 mg/kg, 9 h, dose level High): 1741.8 IU/L | ALT (10 mg/kg, 9 h, dose level High): 40.8 IU/L | AST (10 mg/kg, 9 h, dose level High): 76.8 IU/L | BUN (10 mg/kg, 9 h, dose level High): 8 mg/dL | CRE (10 mg/kg, 9 h, dose level High): 0.2 mg/dL | Ca (10 mg/kg, 9 h, dose level High): 10.5 mg/dL | Cl (10 mg/kg, 9 h, dose level High): 109 meq/L | DBIL (10 mg/kg, 9 h, dose level High): 0.018 mg/dL | GLC (10 mg/kg, 9 h, dose level High): 188.2 mg/dL | IP (10 mg/kg, 9 h, dose level High): 10.1 mg/dL | K (10 mg/kg, 9 h, dose level High): 3.7 meq/L | LDH (10 mg/kg, 9 h, dose level High): 40.6 IU/L | Na (10 mg/kg, 9 h, dose level High): 146 meq/L | PL (10 mg/kg, 9 h, dose level High): 90.6 mg/dL | RALB (10 mg/kg, 9 h, dose level High): 2.4 g/dL | TBIL (10 mg/kg, 9 h, dose level High): 0.046 mg/dL | TC (10 mg/kg, 9 h, dose level High): 41.6 mg/dL | TP (10 mg/kg, 9 h, dose level High): 5.2 g/dL | TERMINAL_BW [1]: 197.9 g | Bas [1]: 0% | Eos [1]: 1% | Fbg [1]: 203.8 mg/dL | Hb [1]: 12.9 g/dL | Ht [1]: 38% | Lym [1]: 78.4% | MCH [1]: 22 pg | MCHC [1]: 34% | MCV [1]: 64.6 fL | Mono [1]: 4.4% | Plat [1]: 110.8 x10_4/uL | RBC [1]: 589.2 x10_4/ul | Ret [1]: 8.5% | WBC [1]: 92.3 x10_2/uL | KIDNEY_L [1]: 0.9 g | KIDNEY_R [1]: 0.9 g | KIDNEY_TOTAL [1]: 1.8 g | LIVER [1]: 9.4 g | ALP [1]: 1883.2 IU/L | ALT [1]: 42.8 IU/L | AST [1]: 71.6 IU/L | BUN [1]: 9 mg/dL | CRE [1]: 0.2 mg/dL | Ca [1]: 10.7 mg/dL | Cl [1]: 108.8 meq/L | DBIL [1]: 0.018 mg/dL | IP [1]: 7 mg/dL | K [1]: 4 meq/L | LDH [1]: 54.6 IU/L | PL [1]: 86.6 mg/dL | RALB [1]: 2.5 g/dL | TBIL [1]: 0.042 mg/dL | TC [1]: 32.4 mg/dL | TP [1]: 5.2 g/dL | gamma-GTP [1]: 1 IU/L

— ChEMBL document CHEMBL3885861, “Open TG-GATES”
